ChEMBL document CHEMBL2440076, “New triarylpyrazoles as broad-spectrum anticancer agents: design, synthesis, and biological evaluation” (Eur J Med Chem, 2013)

Tests used:
Type in all cases: functional
[1] = tested on: K562; test: Growth inhibition of human K562 cells assessed as cell growth at 5X10'-6 M after 48 hrs by sulforhodamine B assay; conditions: K562, 48 h, read-out: Activity
[2] = tested on: SK-MEL-2; test: Growth inhibition of human SK-MEL-2 cells assessed as cell growth at 5X10'-8 M after 48 hrs by sulforhodamine B assay; conditions: SK-MEL-2, 48 h, read-out: Activity
[3] = tested on: MCF7; test: Growth inhibition of human MCF7 cells assessed as cell growth at 5X10'-6 M after 48 hrs by sulforhodamine B assay; conditions: MCF7, 48 h, read-out: Activity
[4] = tested on: OVCAR-5; test: Growth inhibition of human OVCAR5 cells assessed as cell growth at 5X10'-6 M after 48 hrs by sulforhodamine B assay; conditions: OVCAR-5, 48 h, read-out: Activity
[5] = tested on: CCRF-CEM; test: Growth inhibition of human CCRF-CEM cells assessed as cell growth at 5X10'-7 M after 48 hrs by sulforhodamine B assay; conditions: read-out: Activity
[6] = tested on: MOLT-4; test: Growth inhibition of human MOLT4 cells assessed as cell growth at 5X10'-5 M after 48 hrs by sulforhodamine B assay; conditions: MOLT-4, 48 h, read-out: Activity
[7] = tested on: SF-295; test: Growth inhibition of human SF295 cells assessed as cell growth at 5X10'-6 M after 48 hrs by sulforhodamine B assay; conditions: SF-295, 48 h, read-out: Activity
[8] = tested on: A549; test: Growth inhibition of human A549/ATCC cells assessed as cell growth at 5X10'-7 M after 48 hrs by sulforhodamine B assay; conditions: A549, 48 h, read-out: Activity
[9] = tested on: T47D; test: Growth inhibition of human T47D cells assessed as cell growth at 5X10'-8 M after 48 hrs by sulforhodamine B assay; conditions: read-out: Activity
[10] = tested on: HCT-116; test: Growth inhibition of human HCT116 cells assessed as cell growth at 5X10'-7 M after 48 hrs by sulforhodamine B assay; conditions: HCT-116, 48 h, read-out: Activity
[11] = tested on: SNB-75; test: Growth inhibition of human SNB75 cells assessed as cell growth at 5X10'-5 M after 48 hrs by sulforhodamine B assay; conditions: SNB-75, 48 h, read-out: Activity
[12] = tested on: TK-10; test: Growth inhibition of human TK10 cells assessed as cell growth at 5X10'-8 M after 48 hrs by sulforhodamine B assay; conditions: TK-10, 48 h, read-out: Activity
[13] = tested on: M14; test: Growth inhibition of human M14 cells assessed as cell growth at 5X10'-8 M after 48 hrs by sulforhodamine B assay; conditions: M14, 48 h, read-out: Activity
[14] = tested on: OVCAR-8; test: Growth inhibition of human OVCAR8 cells assessed as cell growth at 5X10'-5 M after 48 hrs by sulforhodamine B assay; conditions: OVCAR-8, 48 h, read-out: Activity
[15] = tested on: SNB-19; test: Growth inhibition of human SNB19 cells assessed as cell growth at 5X10'-5 M after 48 hrs by sulforhodamine B assay; conditions: SNB-19, 48 h, read-out: Activity
[16] = Growth inhibition of human NCI-ADR-RES cells assessed as cell growth at 5X10'-7 M after 48 hrs by sulforhodamine B assay; conditions: read-out: Activity
[17] = tested on: LOX IMVI; test: Growth inhibition of human LOXIMVI cells assessed as cell growth at 5X10'-9 M after 48 hrs by sulforhodamine B assay; conditions: read-out: Activity
[18] = tested on: SK-MEL-2; test: Growth inhibition of human SK-MEL-2 cells assessed as cell growth at 5X10'-9 M after 48 hrs by sulforhodamine B assay; conditions: SK-MEL-2, 48 h, read-out: Activity
[19] = tested on: OVCAR-4; test: Growth inhibition of human OVCAR4 cells assessed as cell growth at 5X10'-8 M after 48 hrs by sulforhodamine B assay; conditions: OVCAR-4, 48 h, read-out: Activity
[20] = tested on: SF-539; test: Growth inhibition of human SF539 cells assessed as cell growth at 5X10'-7 M after 48 hrs by sulforhodamine B assay; conditions: SF-539, 48 h, read-out: Activity
[21] = tested on: SK-OV-3; test: Growth inhibition of human SKOV3 cells assessed as cell growth at 5X10'-7 M after 48 hrs by sulforhodamine B assay; conditions: SK-OV-3, 48 h, read-out: Activity
[22] = tested on: SNB-75; test: Growth inhibition of human SNB75 cells assessed as cell growth at 5X10'-9 M after 48 hrs by sulforhodamine B assay; conditions: SNB-75, 48 h, read-out: Activity
[23] = tested on: MDA-MB-468; test: Growth inhibition of human MDA-MB-468 cells assessed as cell growth at 5X10'-8 M after 48 hrs by sulforhodamine B assay; conditions: MDA-MB-468, 48 h, read-out: Activity
[24] = tested on: OVCAR-5; test: Growth inhibition of human OVCAR5 cells assessed as cell growth at 5X10'-8 M after 48 hrs by sulforhodamine B assay; conditions: OVCAR-5, 48 h, read-out: Activity
[25] = tested on: CAKI-1; test: Growth inhibition of human CAKI-1 cells assessed as cell growth at 5X10'-5 M after 48 hrs by sulforhodamine B assay; conditions: CAKI-1, 48 h, read-out: Activity
[26] = tested on: HCT-15; test: Growth inhibition of human HCT15 cells assessed as cell growth at 5X10'-6 M after 48 hrs by sulforhodamine B assay; conditions: HCT-15, 48 h, read-out: Activity
[27] = tested on: CCRF-CEM; test: Growth inhibition of human CCRF-CEM cells assessed as cell growth at 5X10'-8 M after 48 hrs by sulforhodamine B assay; conditions: read-out: Activity
[28] = tested on: BT-549; test: Growth inhibition of human BT549 cells assessed as cell growth at 5X10'-8 M after 48 hrs by sulforhodamine B assay; conditions: BT-549, 48 h, read-out: Activity
[29] = tested on: BT-549; test: Growth inhibition of human BT549 cells assessed as cell growth at 5X10'-5 M after 48 hrs by sulforhodamine B assay; conditions: BT-549, 48 h, read-out: Activity
[30] = Growth inhibition of human Hs 578T cells assessed as cell growth at 5X10'-5 M after 48 hrs by sulforhodamine B assay; conditions: read-out: Activity
[31] = tested on: CCRF-CEM; test: Growth inhibition of human CCRF-CEM cells assessed as cell growth at 5X10'-6 M after 48 hrs by sulforhodamine B assay; conditions: read-out: Activity
[32] = tested on: SF-295; test: Growth inhibition of human SF295 cells assessed as cell growth at 5X10'-7 M after 48 hrs by sulforhodamine B assay; conditions: SF-295, 48 h, read-out: Activity
[33] = tested on: HCT-116; test: Growth inhibition of human HCT116 cells assessed as cell growth at 5X10'-9 M after 48 hrs by sulforhodamine B assay; conditions: HCT-116, 48 h, read-out: Activity
[34] = tested on: NCI-H23; test: Growth inhibition of human NCI-H23 cells assessed as cell growth at 5X10'-9 M after 48 hrs by sulforhodamine B assay; conditions: NCI-H23, 48 h, read-out: Activity
[35] = tested on: A549; test: Growth inhibition of human A549/ATCC cells assessed as cell growth at 5X10'-5 M after 48 hrs by sulforhodamine B assay; conditions: A549, 48 h, read-out: Activity
[36] = tested on: K562; test: Growth inhibition of human K562 cells assessed as cell growth at 5X10'-8 M after 48 hrs by sulforhodamine B assay; conditions: K562, 48 h, read-out: Activity
[37] = tested on: UO-31; test: Growth inhibition of human UO31 cells assessed as cell growth at 5X10'-5 M after 48 hrs by sulforhodamine B assay; conditions: UO-31, 48 h, read-out: Activity
[38] = tested on: A549; test: Growth inhibition of human A549/ATCC cells assessed as cell growth at 5X10'-9 M after 48 hrs by sulforhodamine B assay; conditions: A549, 48 h, read-out: Activity

COc1cc(-c2nn(-c3cccc(NC(=O)Nc4cccc(C(F)(F)F)c4)c3)cc2-c2ccncc2)ccc1Cl
growth at 5 µM [1]: 3% | growth at 0.05 µM [2]: 98% | growth at 5 µM [3]: 2% | growth at 5 µM [4]: 5% | growth at 0.5 µM [5]: 69% | growth at 50 µM [6]: -17% | growth at 5 µM [7]: -71% | growth at 0.5 µM [8]: 62% | growth at 0.05 µM [9]: 98% | growth at 0.5 µM [10]: 66% | growth at 50 µM [11]: -30% | growth at 0.05 µM [12]: 93% | growth at 0.05 µM [13]: 97% | growth at 50 µM [14]: -24% | growth at 50 µM [15]: -18% | growth at 0.5 µM [16]: 65% | growth at 0.005 µM [17]: 95% | growth at 0.005 µM [18]: 101% | growth at 0.05 µM [19]: 96% | growth at 0.5 µM [20]: 79% | growth at 0.5 µM [21]: 102% | growth at 0.005 µM [22]: 92% | growth at 0.05 µM [23]: 92% | growth at 0.05 µM [24]: 86% | growth at 50 µM [25]: -21% | growth at 5 µM [26]: 1% | growth at 0.05 µM [27]: 102% | growth at 0.05 µM [28]: 96% | growth at 50 µM [29]: -26% | growth at 50 µM [30]: -6% | growth at 5 µM [31]: -1% | growth at 0.5 µM [32]: 39% | growth at 0.005 µM [33]: 101% | growth at 0.005 µM [34]: 96% | growth at 50 µM [35]: 1% | growth at 0.05 µM [36]: 95% | growth at 50 µM [37]: -35% | growth at 0.005 µM [38]: 97%
